We go through four compounds from patent US11497757B2, “Silanol based therapeutic payloads” (BlinkBio, Inc., priority 2016, dated 2022).

One experiment relates to KB cells. The experiment is described as follows: CellTiter-Glo cell viability, washout protocol. The class given is cell-based. To be noted: for EC50: washout protocol: 2 h incubation, wash, additional 70 h, siloxane based conjugates; for % Kill (48 h): washout protocol. On the procedure:
Washout protocol: KB cells in culture were seeded in white clear bottom 96-well tissue culture plate at a density of 5,000 cells per well in a folate free RPMI media with 10% FBS a day prior to compound addition. Cells were counted visually with a hemocytometer and diluted accordingly to obtain the desired density. Cells were allowed to incubate for 24 hours in a humidified CO2 atmosphere in an incubator at 37° C. The spent media was aspirated and replenished with 100 μL of fresh media containing a 3-fold serial dilution of compound with concentrations ranging from 0.3 to 2000 nM and with a final DMSO concentration of 0.1%. Blank wells without compound were also treated with media containing 0.1% DMSO. […] […] At the end of 70 h, the spent media was removed and cells were washed once with fresh media and then suspended 100 μL of PBS. 100 μL of constituted Cell titer-glo reagent was added to each well and luminescence was recorded with a VICTOR plate reader according to manufacturers' protocol.
(In general: ATP-based viability assays read luminescence as a measure of living cells.)

The test system of experiment [1] is Folate receptor alpha expressing KB cells. The experiment is described as follows: Confocal imaging study demonstrating endocytosis and Si-O cleavage. To be noted: 50 nM. The class given is cell-based. The protocol:
Example 51 as shown above contains a folate receptor targeting ligand, a spacer moiety, a siloxane core and two different fluorescent dyes (BODIPY and rhodamine) positioned on either side of the siloxane core. Folate receptor alpha expressing KB cells were grown in folic acid free media. The cells were incubated for 30 minutes on ice with 50 nM of Example 51, washed with fresh culture medium and then incubated in media at 37° C. for the desired length of time. The fate of both dyes was simultaneously monitored using confocal microscopy using Zeiss LSM 780 laser scanning microscope.

By EC50 is commonly meant the concentration needed to bring the measured effect to its halfway point. Low readings indicate an effect from little substance, high ones a need for much substance. Consider `CC[C@]1(O)C[C@@H]2CN(CCc3c([nH]c4ccccc34)[C@@](C(=O)OC)(c3cc4c(cc3OC)N(C)[C@H]3[C@@](O)(C(=O)NCCC[Si](C)(C)O[Si](C)(C)CSc5ncc(Cn6cc(C[C@H](NC(=O)[C@H](CC(=O)O)NC(=O)[C@H](CC(=O)O)NC(=O)[C@H](CCCNC(=N)N)NC(=O)[C@H](CC(=O)O)NC(=O)CC[C@H](NC(=O)c7ccc(NCc8cnc9nc(N)[nH]c(=O)c9n8)cc7)C(=O)O)C(=O)O)nn6)cn5)[C@H](O)[C@]5(CC)C=CCN6CC[C@]43[C@@H]65)C2)C1` [Example 28], for which, in the experiment with KB cells, the EC50 is about 156 nM and the “% Kill (48 h)” value is on record as 86%.
For the compound `CCN(CC)c1ccc2c(-c3ccc(S(=O)(=O)NCc4cnc(SC[Si](C)(C)O[Si](C)(C)CCCN5C(=O)CC(SC[C@H](NC(=O)[C@H](CNC(=O)CCC6=[N+]7C(=Cc8c(C)cc(C)n8[B-]7(F)F)C=C6)NC(=O)[C@H](CC(=O)O)NC(=O)CC[C@H](NC(=O)c6ccc(NCc7cnc8nc(N)[nH]c(=O)c8n7)cc6)C(=O)O)C(=O)O)C5=O)nc4)cc3S(=O)(=O)[O-])c3ccc(=[N+](CC)CC)cc-3oc2c1` (some centres unmarked) [Example 51], the “Folate receptor binding on cell surface (colocalization of dyes)” value in experiment [1] (t=0) is listed as “bound to the folate receptor on the cell surface”. Moreover, in experiment [1] (t=30 min, 37° C.), the “Cleavage of the siloxane core (color separation of the two dyes)” value was “cleavage of the siloxane core was observed” and the “Endocytosis of intact conjugate into the cell” value is on record as “endocytosis of intact Example 51 into the cell was observed”.
For the compound `CC[C@]1(O)C[C@@H]2C[N@@](CCc3c([nH]c4ccccc34)[C@@](C(=O)OC)(c3cc4c(cc3OC)N(C)[C@H]3[C@@](O)(C(=O)NCCC[Si](C)(C)O[Si](C)(C)CSc5ncc(Cn6cc(COCCOCCOCCOCCOCCOCCNC(=O)CC[C@H](NC(=O)c7ccc(NCc8cnc9nc(N)[nH]c(=O)c9n8)cc7)C(=O)O)nn6)cn5)[C@H](O)[C@]5(CC)C=CCN6CC[C@]43[C@@H]65)C2)C1` [Example 24], in the experiment with KB cells, the EC50 is about 265 nM and the “% Kill (48 h)” value came out at 84%.
With `CC[C@H](C)[C@@H]([C@@H](CC(=O)N1CCC[C@H]1[C@H](OC)[C@@H](C)C(=O)N[C@@H](Cc1ccccc1)C(=O)O)OC)N(C)C(=O)[C@@H](NC(=O)[C@H](C(C)C)N(C)C(=O)CCC[Si](C)(C)O[Si](C)(C)c1cccc(CC(=O)NCCOCCOCCOCCOCCOCCn2cc(COCC(COCc3cn(CCOCCOCCOCCOCCOCCNC(=O)Cc4cccc([Si](C)(C)O[Si](C)(C)CCCC(=O)N(C)[C@H](C(=O)N[C@H](C(=O)N(C)[C@@H]([C@@H](C)CC)[C@@H](CC(=O)N5CCC[C@H]5[C@H](OC)[C@@H](C)C(=O)N[C@@H](Cc5ccccc5)C(=O)O)OC)C(C)C)C(C)C)c4)nn3)(COCc3cn(CCOCCOCCOCCOCCOCCNC(=O)Cc4cccc([Si](C)(C)O[Si](C)(C)CCCC(=O)N(C)[C@H](C(=O)N[C@H](C(=O)N(C)[C@@H]([C@@H](C)CC)[C@@H](CC(=O)N5CCC[C@H]5[C@H](OC)[C@@H](C)C(=O)N[C@@H](Cc5ccccc5)C(=O)O)OC)C(C)C)C(C)C)c4)nn3)NC(=O)CCOCCOCCOCCOCCOCCOCCNC(=O)CC[C@H](NC(=O)c3ccc(NCc4cnc5nc(N)[nH]c(=O)c5n4)cc3)C(=O)O)nn2)c1)C(C)C` [Example 35, Folate-PEG-Adaptor-PhenylSiLinker-TripleAuristatin], the concentration giving a half-maximal response (EC50) in the experiment with KB cells was about 8 nM.
